Drawing on patent US8889683B2, “Substituted quinoxalines as inhibitors of fatty acid binding protein” (Merck Sharp & Dohme Corp., priority 2010, dated 2014), this text covers Kd for 32 molecules.

For the assay, the target named is FABP4 (Homo sapiens, UniProt P15090). Nature of the assay: TdF-based ligand binding affinity (FABP inhibitory activity assay). The following applies: TdF-based ligand binding affinity constant. The text has this: Theoretical basis for TdF-based ligand binding affinity constant
Sequence of FABP4 (P15090 whole entry): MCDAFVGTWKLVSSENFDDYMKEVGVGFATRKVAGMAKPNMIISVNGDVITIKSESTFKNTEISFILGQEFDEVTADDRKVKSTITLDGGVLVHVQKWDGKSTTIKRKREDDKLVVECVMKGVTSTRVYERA
The derivation of TdF-based ligand binding affinity constant (Kd) followed closely those previously formulated by Brandts and Lin, Biochemistry 29 (1990) 6927-6940. In brief, the binding constant of the ligand at the Tm is expressed as below: […]
where T0 is the midpoint of unfolding for unliganded protein and Tm is the midpoint of unfolding in presence of ligand. [LTm] is free ligand at Tm. The ΔHu and ΔCpu are the enthalpy of unfolding and heat capacity change of unfolding for the protein respectively. The ΔCPu is proportional to the size of protein and is an approximate quantity in the above equation (empirically, ΔCpu=(MW of protein/115)*14 cal/mol*K). Following algorithm derived by Mayhood et al, (Analytical Biochemistry 345 (2005) 187-197), the T0 and ΔHu can be determined separately from nonlinear regression fitting the temperature dependent protein alone curve to the following equation: […]
The nonlinear regression fitting in general readily reaches convergence by properly constraining the initial values for the fitting parameters (e.g. the initial “guess” for the ΔHu was constrained to 120 kcal/mol; initial Yn and mr, were set to 1 and zero to best represent the melting curve along the low temperature region; negative slope of −0.5 was initially chosen for mu; initial Tm was also constrained to 50° C.).
(see Brandts et al and Mayhood et al, shown above) where ΔHL (T) is the van't Hoff enthalpy of ligand binding at temperature T and ΔCpL is the heat capacity upon ligand binding. For simplicity, the ΔCpL and ΔHL (T) were set to zero and −7 kcal/mol respectively. (The ΔCpL accounts for minimal portion of total protein-ligand binding energetics and is therefore set to zero (For example, see Hossein Naghibi et al, Proc. Natl. Acad. Sci. 92, 5597-5599 (1995), where ΔCpL was estimated to ˜2% of ΔHL at 25° C. obtained from calorimetric study of binding RNase A and 2′-CMP)).
Regarding `O=C(c1nc2cc(F)c(F)cc2nc1O)N1CCCC1Cc1cccc(Cl)c1` (racemic) [Compound 1-2, (+/−)-[2-(3-chlorobenzyl)pyrrolidin-1-yl](6,7-difluoro-3-hydroxyquinoxalin-2-yl)methanone], binding was characterised by a dissociation constant (Kd) of 0.08 µM. Take `O=C(c1nc2cc(F)ccc2nc1O)N1CCCC1Cc1cccc(Cl)c1` (racemic) [Compound 1-3, (+/−)-[2-(3-Chlorobenzyl)pyrrolidin-1-yl](7-fluoro-3-hydroxyquinoxalin-2-yl)methanone]: the Kd was found to be 0.3 µM. This Kd is about 3.8-fold higher than that of the molecule before. For `O=C(c1nc2ccc(F)cc2nc1O)N1CCCC1Cc1cccc(Cl)c1` (racemic) [Compound 1-4, (+/−)-[2-(3-Chlorobenzyl)pyrrolidin-1-yl](6-fluoro-3-hydroxyquinoxalin-2-yl)methanone] the value was 0.18 µM; for `O=C(c1nc2c(Cl)cccc2nc1O)N1CCCC1Cc1cccc(Cl)c1` (racemic) [Compound 1-8, (+/−)-(8-Chloro-3-hydroxyquinoxalin-2-yl)[2-(3-chlorobenzyl)pyrrolidin-1-yl]methanone], 0.11 µM. `O=C(c1nc2cc(Cl)ccc2nc1O)N1CCCC1Cc1cccc(Cl)c1` (racemic) [Compound 1-9, (+/−)-(7-Chloro-3-hydroxyquinoxalin-2-yl)[2-(3-chlorobenzyl)pyrrolidin-1-yl]methanone] registered a dissociation constant Kd of 0.41 µM.

In turn, `O=C(c1nc2ccc(Cl)cc2nc1O)N1CCCC1Cc1cccc(Cl)c1` (racemic) [Compound 1-10, (+/−)-(6-Chloro-3-hydroxyquinoxalin-2-yl)[2-(3-chlorobenzyl)pyrrolidin-1-yl]methanone] displayed a Kd of 0.25 µM. `O=C(c1nc2cccc(Cl)c2nc1O)N1CCCC1Cc1cccc(Cl)c1` (racemic) [Compound 1-11, (+/−)-(5-Chloro-3-hydroxyquinoxalin-2-yl)[2-(3-chlorobenzyl)pyrrolidin-1-yl]methanone] displayed a Kd of 0.003 µM. Molecule `O=C(c1nc2cc(Cl)c(Cl)cc2nc1O)N1CCCC1Cc1cccc(Cl)c1` (racemic) [Compound 1-13, (+/−)-[2-(3-Chlorobenzyl)pyrrolidin-1-yl](6,7-dichloro-3-hydroxyquinoxalin-2-yl)methanone] returned a Kd of 0.063 µM. Regarding `O=C(c1nc2cc(I)ccc2nc1O)N1CCCC1Cc1cccc(Cl)c1` (racemic) [Compound 1-18, (+/−)-[2-(3-Chlorobenzyl)pyrrolidin-1-yl](3-hydroxy-7-iodoquinoxalin-2-yl)methanone], the Kd worked out at 0.63 µM. Compared with the last molecule, the Kd is about 10-fold higher. In turn, `O=C(c1nc2ccc(I)cc2nc1O)N1CCCC1Cc1cccc(Cl)c1` (racemic) [Compound 1-19, (+/−)-[2-(3-Chlorobenzyl)pyrrolidin-1-yl](3-hydroxy-6-iodoquinoxalin-2-yl)methanone] returned a Kd of 0.46 µM. Under `O=C(c1nc2cc(OC(F)(F)F)ccc2nc1O)N1CCCC1Cc1cccc(Cl)c1` (racemic) [Compound 1-20, (+/−)-[2-(3-Chlorobenzyl)pyrrolidin-1-yl][3-hydroxy-7-(trifluoromethoxy)quinoxalin-2-yl]methanone] stands 0.95 µM; under `O=C(c1nc2ccc(OC(F)(F)F)cc2nc1O)N1CCCC1Cc1cccc(Cl)c1` (racemic) [Compound 1-21, (+/−)-[2-(3-Chlorobenzyl)pyrrolidin-1-yl][3-hydroxy-6-(trifluoromethoxy)quinoxalin-2-yl]methanone], 0.22 µM; under `O=C(c1nc2cc(SC(F)(F)F)ccc2nc1O)N1CCCC1Cc1cccc(Cl)c1` (racemic) [Compound 1-22, (+/−)-[2-(3-Chlorobenzyl)pyrrolidin-1-yl][3-hydroxy-7-(trifluoromethylthio]quinoxalin-2-yl)methanone], 0.024 µM. Regarding `O=C(c1nc2ccc(SC(F)(F)F)cc2nc1O)N1CCCC1Cc1cccc(Cl)c1` (racemic) [Compound 1-23, (+/−)-[2-(3-Chlorobenzyl)pyrrolidin-1-yl][3-hydroxy-6-(trifluoromethylthio]quinoxalin-2-yl)methanone], the Kd is 0.024 µM. In turn, `O=C(c1nc2cc(S(=O)(=O)C(F)(F)F)ccc2nc1O)N1CCCC1Cc1cccc(Cl)c1` (racemic) [Compound 1-24, (+/−)-[2-(3-Chlorobenzyl)pyrrolidin-1-yl][3-hydroxy-7-(trifluoromethylsulfonyl)quinoxalin-2-yl]methanone] gave a Kd of 0.3 µM. Molecule `O=C(c1nc2ccc(S(=O)(=O)C(F)(F)F)cc2nc1O)N1CCCC1Cc1cccc(Cl)c1` (racemic) [Compound 1-25, (+/−)-[2-(3-Chlorobenzyl)pyrrolidin-1-yl][3-hydroxy-6-(trifluoromethylsulfonyl)quinoxalin-2-yl]methanone] displayed a Kd of 0.1 µM. `COc1ccc2nc(O)c(C(=O)N3CCCC3Cc3cccc(Cl)c3)nc2c1` (racemic) [Compound 1-27, (+/−)-[2-(3-Chlorobenzyl)pyrrolidin-1-yl](3-hydroxy-7-methoxyquinoxalin-2-yl)methanone] returned a Kd of 4.94 µM. Compared with the last molecule, the Kd is about 49-fold higher. `O=C(c1nc2cccc(C(F)(F)F)c2nc1O)N1CCCC1Cc1cccc(Cl)c1` (racemic) [Compound 1-30, (+/−)-[2-(3-Chlorobenzyl)pyrrolidin-1-yl][3-hydroxy-5-(trifluoromethyl)quinoxalin-2-yl]methanone]: the affinity, expressed as Kd, was 0.002 µM. The molecule `N#Cc1ccc2nc(C(=O)N3CCCC3Cc3cccc(Cl)c3)c(O)nc2c1` (racemic) [Compound 1-31, (+/−)-2-[2-(3-Chlorobenzyl)pyrrolidine-1-carbonyl]-3-hydroxyquinoxaline-6-carbonitrile] gave a Kd of 0.5 µM. In turn, `O=C(c1nc2ncccc2nc1O)N1CCCC1Cc1cccc(Cl)c1` (racemic) [Compound 1-32, (+/−)-[2-(3-Chlorobenzyl)pyrrolidin-1-yl](2-hydroxypyrido[2,3-b]pyrazin-3-yl)methanone] yielded a Kd of 0.3 µM. Consider `O=C(c1nc2cccnc2nc1O)N1CCCC1Cc1cccc(Cl)c1` (racemic) [Compound 1-33, (+/−)-[2-(3-Chlorobenzyl)pyrrolidin-1-yl](3-hydroxypyrido[3,2-b]pyrazin-2-yl)methanone], for which the Kd turned out to be 0.6 µM. Consider `O=C(c1nc2cc(Br)ccc2nc1O)N1CCCC1Cc1cccc(Cl)c1` (racemic) [Compound 1-37, (+/−)-(7-Bromo-3-hydroxyquinoxalin-2-yl)[2-(3-chlorobenzyl)pyrrolidin-1-yl]methanone], for which the dissociation constant Kd worked out at 0.85 µM. `COc1cc2nc(O)c(C(=O)N3CCCC3Cc3cccc(Cl)c3)nc2cc1OC` (racemic) [Compound 1-38, (+/−)-[2-(3-Chlorobenzyl)pyrrolidin-1-yl](3-hydroxy-6,7-dimethoxyquinoxalin-2-yl)methanone] showed a Kd of 22.5 µM.

Turning to `O=C(c1nc2ccc(C(F)(F)F)cc2nc1O)N1CCCC1Cc1cccc(Cl)c1` (racemic) [Compound 1-39, (+/−)-[2-(3-Chlorobenzyl)pyrrolidin-1-yl][3-hydroxy-6-(trifluoromethyl)quinoxalin-2-yl]methanone], the affinity, expressed as Kd, was 0.2 µM. Consider `Cc1ccc(CC2CCCN2C(=O)c2nc3ccccc3nc2O)cc1C` (racemic) [Compound 1-42, (+/−)-[2-(3,4-Dimethylbenzyl)pyrrolidin-1-yl](3-hydroxyquinoxalin-2-yl)methanone], for which the Kd turned out to be 1.34 µM. Against the preceding molecule, the Kd is about 6.7-fold higher.

Molecule `CCC(c1ccccc1)C1CCCN1C(=O)c1nc2ccccc2nc1O` (racemic) [Compound 1-48, (+/−)-(3-Hydroxyquinoxalin-2-yl)[2-(1-phenylpropyl)pyrrolidin-1-yl]methanone] came in with a Kd of 11.9 µM. Against the preceding molecule, the Kd is about 8.9-fold higher. Take `O=C(c1nc2ccccc2nc1O)N1CCCC1Cc1cccc(F)c1` (racemic) [Compound 1-51, (+/−)-[2-(3-Fluorobenzyl)pyrrolidin-1-yl](3-hydroxyquinoxalin-2-yl)methanone]: the Kd amounted to 1.8 µM. Against the preceding molecule, the Kd is about 6.6-fold lower. `O=C(c1nc2ccccc2nc1O)N1CCCC1Cc1c(F)cccc1Cl` (racemic) [Compound 1-52, (+/−)-[2-(2-Chloro-6-fluorobenzyl)pyrrolidin-1-yl](3-hydroxyquinoxalin-2-yl)methanone] had a Kd of 5.68 µM. Under `O=C(c1nc2ccccc2nc1O)N1CCCC1COc1ccc(F)cc1` (racemic) [Compound 1-55, (+/−)-{2-[(4-fluorophenoxy)methyl]pyrrolidin-1-yl}(3-hydroxyquinoxalin-2-yl)methanone] stands 23 µM; under `O=C(c1nc2ccccc2nc1O)N1CCCC1COc1ccc(F)c(Cl)c1` (racemic) [Compound 1-64, (+/−)-{2-[(3-Chloro-4-fluorophenoxy)methyl]pyrrolidin-1-yl}(3-hydroxyquinoxalin-2-yl)methanone], 15.1 µM; under `O=C(c1nc2ccccc2nc1O)N1CCCCC1Cc1ccccc1` (racemic) [Compound 1-72, (+/−)-(2-Benzylpiperidin-1-yl)(3-hydroxyquinoxalin-2-yl)methanone], 14.2 µM. For `COc1ccccc1CC1CCCCN1C(=O)c1nc2ccccc2nc1O` (racemic) [Compound 1-73, (+/−)-(3-Hydroxyquinoxalin-2-yl)[2-(2-methoxybenzyl)piperidin-1-yl]methanone], binding was put at a Kd of 2.25 µM.

Broadly, the Kd is the concentration at which binding is half-saturated. A higher Kd goes with lower affinity.
